# In publication PMC12860872, “Preclinical evaluation of DOTAGA.Glu.(FAPI)2 and DO3A.Glu.(FAPI)2 as theranostics with human dosimetry extrapolation to lutetium-177 and terbium-161 analogs” (European Journal of Nuclear Medicine and Molecular Imaging, 2025):
# Tested on: PC3-mice
# Test: Biodistribution in PC3-mice incl. blocking
# Format: in vivo, mouse
# Conditions: PC3-mice
# Method: Male athymic Balb/C nude mice (6 weeks/20–25 g) were implanted with PC3 cells (3.5 × 10^6/100 µL PBS) into their right shoulder to develop tumors. The animals were used for biodistribution and PET/SPECT/CT imaging studies, once tumors reached 250–300 mm^3.
# All mice were euthanized with intraperitoneal injection of pentobarbital (150 mg/kg), and selected organs were dissected, weighed, and measured for radioactivity using a gamma-counter. Results are expressed as % injected activity per gram tissue (% I.A./g), presented as mean ± SD (n = 3–4).
# [1] = Blocking 4h (20 nmol unlabeled precursor)
smiles,measurement,setting,value
N#C[C@@H]1CC(F)(F)CN1C(=O)CNC(=O)c1ccnc2ccc(OCCCCNC(=O)CC[C@H](NC(=O)CCC(C(=O)O)N3CCN(CC(=O)[O-])CCN(CC(=O)[O-])CCN(CC(=O)[O-])CC3)C(=O)NCCCCOc3ccc4nccc(C(=O)NCC(=O)N5CC(F)(F)C[C@H]5C#N)c4c3)cc12.[177Lu+3] (some centres unmarked) [[^177Lu]Lu-DOTAGA.Glu.(FAPI)2],Uptake in Adrenal,4 h p.i.,3±0.2 %I.A./g
same,Uptake in Blood,4 h p.i.,2.1±0.1 %I.A./g
same,Uptake in Bone,4 h p.i.,4±0.3 %I.A./g
same,Uptake in Gallbladder,4 h p.i.,2.7±1.6 %I.A./g
same,Uptake in Heart,4 h p.i.,0.9±0.1 %I.A./g
same,Uptake in Intestine,4 h p.i.,0.8±0.3 %I.A./g
same,Uptake in Kidney,4 h p.i.,2.6±0.4 %I.A./g
same,Uptake in Liver,4 h p.i.,1.7±0.2 %I.A./g
same,Uptake in Lung,4 h p.i.,1.1±0.1 %I.A./g
same,Uptake in Muscle,4 h p.i.,1.4±0.3 %I.A./g
same,Uptake in Pancreas,4 h p.i.,1.9±0.1 %I.A./g
same,Uptake in Salivary glands,4 h p.i.,6.2±1.2 %I.A./g
same,Uptake in Spleen,4 h p.i.,0.9±0.1 %I.A./g
same,Uptake in Stomach,4 h p.i.,0.8±0.1 %I.A./g
same,Uptake in Tumor,4 h p.i.,16.2±2.5 %I.A./g
same,Uptake in Adrenal,24 h p.i.,1.9±0.2 %I.A./g
same,Uptake in Blood,24 h p.i.,0.9±0.2 %I.A./g
same,Uptake in Bone,24 h p.i.,2.5±0.1 %I.A./g
same,Uptake in Gallbladder,24 h p.i.,0.4±0.1 %I.A./g
same,Uptake in Heart,24 h p.i.,0.6±0.1 %I.A./g
same,Uptake in Intestine,24 h p.i.,0.4±0.1 %I.A./g
same,Uptake in Kidney,24 h p.i.,1.3±0.2 %I.A./g
same,Uptake in Liver,24 h p.i.,2.1±0.2 %I.A./g
same,Uptake in Lung,24 h p.i.,0.6±0.2 %I.A./g
same,Uptake in Muscle,24 h p.i.,0.8±0.1 %I.A./g
same,Uptake in Pancreas,24 h p.i.,0.9±0.7 %I.A./g
same,Uptake in Salivary glands,24 h p.i.,2.9±0.5 %I.A./g
same,Uptake in Spleen,24 h p.i.,0.7±0.2 %I.A./g
same,Uptake in Stomach,24 h p.i.,0.4±0.1 %I.A./g
same,Uptake in Tumor,24 h p.i.,7.3±0.6 %I.A./g
same,Uptake in Adrenal,48 h p.i.,1.3±0.3 %I.A./g
same,Uptake in Blood,48 h p.i.,0.2±0.03 %I.A./g
same,Uptake in Bone,48 h p.i.,1.3±0.1 %I.A./g
same,Uptake in Gallbladder,48 h p.i.,0.1±0.1 %I.A./g
same,Uptake in Heart,48 h p.i.,0.4±0.04 %I.A./g
same,Uptake in Intestine,48 h p.i.,0.2±0.01 %I.A./g
same,Uptake in Kidney,48 h p.i.,1±0.2 %I.A./g
same,Uptake in Liver,48 h p.i.,1.9±0.5 %I.A./g
same,Uptake in Lung,48 h p.i.,0.3±0.1 %I.A./g
same,Uptake in Muscle,48 h p.i.,0.5±0.1 %I.A./g
same,Uptake in Pancreas,48 h p.i.,0.6±0.1 %I.A./g
same,Uptake in Salivary glands,48 h p.i.,2.2±0.3 %I.A./g
same,Uptake in Spleen,48 h p.i.,0.5±0.04 %I.A./g
same,Uptake in Stomach,48 h p.i.,0.3±0.03 %I.A./g
same,Uptake in Tumor,48 h p.i.,5.1 ± 0.1 %I.A./g
same,Uptake in Adrenal,72 h p.i.,0.9±0.02 %I.A./g
same,Uptake in Blood,72 h p.i.,0.1±0.03 %I.A./g
same,Uptake in Bone,72 h p.i.,0.9±0.2 %I.A./g
same,Uptake in Gallbladder,72 h p.i.,0.1±0.1 %I.A./g
same,Uptake in Heart,72 h p.i.,0.3±0.1 %I.A./g
same,Uptake in Intestine,72 h p.i.,0.1±0.02 %I.A./g
same,Uptake in Kidney,72 h p.i.,0.6±0.1 %I.A./g
same,Uptake in Liver,72 h p.i.,1.4±0.4 %I.A./g
same,Uptake in Lung,72 h p.i.,0.1±0.02 %I.A./g
same,Uptake in Muscle,72 h p.i.,0.2±0.02 %I.A./g
same,Uptake in Pancreas,72 h p.i.,0.4±0.03 %I.A./g
same,Uptake in Salivary glands,72 h p.i.,0.7±0.04 %I.A./g
same,Uptake in Spleen,72 h p.i.,0.3±0.1 %I.A./g
same,Uptake in Stomach,72 h p.i.,0.1±0.02 %I.A./g
same,Uptake in Tumor,72 h p.i.,3.2±0.3 %I.A./g
same,Uptake in Adrenal,96 h p.i.,0.5±0.01 %I.A./g
same,Uptake in Blood,96 h p.i.,0.03±0 %I.A./g
same,Uptake in Bone,96 h p.i.,0.6±0.1 %I.A./g
same,Uptake in Gallbladder,96 h p.i.,0.1±0.02 %I.A./g
same,Uptake in Heart,96 h p.i.,0.2±0.02 %I.A./g
same,Uptake in Intestine,96 h p.i.,0.1±0.02 %I.A./g
same,Uptake in Kidney,96 h p.i.,0.4±0.04 %I.A./g
same,Uptake in Liver,96 h p.i.,1.3±0.1 %I.A./g
same,Uptake in Lung,96 h p.i.,0.1±0.02 %I.A./g
same,Uptake in Muscle,96 h p.i.,0.1±0.1 %I.A./g
same,Uptake in Pancreas,96 h p.i.,0.2±0.02 %I.A./g
same,Uptake in Salivary glands,96 h p.i.,0.7±0.1 %I.A./g
same,Uptake in Spleen,96 h p.i.,0.3±0.03 %I.A./g
same,Uptake in Stomach,96 h p.i.,0.1±0.01 %I.A./g
same,Uptake in Tumor,96 h p.i.,2.2±0.2 %I.A./g
same,Uptake in Adrenal,[1],0.8±0.5 %I.A./g
same,Uptake in Blood,[1],0.03±0.01 %I.A./g
same,Uptake in Bone,[1],0.7±0.1 %I.A./g
same,Uptake in Gallbladder,[1],0.2±0.2 %I.A./g
same,Uptake in Heart,[1],0.2±0.04 %I.A./g
same,Uptake in Intestine,[1],0.1±0.02 %I.A./g
same,Uptake in Kidney,[1],0.5±0.1 %I.A./g
same,Uptake in Liver,[1],1.2±0.5 %I.A./g
same,Uptake in Lung,[1],0.1±0.04 %I.A./g
same,Uptake in Muscle,[1],0.2±0.04 %I.A./g
same,Uptake in Pancreas,[1],0.2±0.2 %I.A./g
same,Uptake in Salivary glands,[1],0.6±0.2 %I.A./g
same,Uptake in Spleen,[1],0.3±0.1 %I.A./g
same,Uptake in Stomach,[1],0.09±0.02 %I.A./g
same,Uptake in Tumor,[1],2.9±1.8 %I.A./g
same,tumor uptake,at 1 h p.i. as printed,~ 15 %I.A./g
same,drop of tumor uptake (washed-out),at 24 h vs 4 h p.i.,~ 50%
